Reference: patent US20190141999A1, “Methods For Repelling Blood-Sucking And Biting Insects, Ticks And Mites” (The United States of America, as represented by the …, priority 2017, published 2019)
Where two headings read alike, the source gives them in different places. Marks after values point to notes of the source that are not given here.

Tests used:
[1] = test system: stable flies; assay: stable fly laboratory repellent bioassay (blood-feeding); assay type: in vivo, Stomoxys calcitran
Method: Comparisons of coconut oil, coconut FFA, and lauric acid against stable fly blood-feeding: Using our modified stable fly laboratory repellent bioassay, we tested coconut oil, coconut FFA and its major compositional compound, lauric acid, for their repellency against stable flies.
In FIG. 11, repellent activity tests were conducted under the laboratory conditions (22° C., 50% RH), 48-hr starved stable flies were used, and a total of at least 5 replicates were accumulated.

[2] = test system: stable flies; assay: as above; assay type: in vivo, Stomoxys calcitran; conditions: for repellency of C8 to C18 acids: FIG. 3
[3] = test system: horn flies; assay: mortality of horn flies after exposure; assay type: in vivo
Text: The present invention discloses a blood-sucking insects and biting insects (e.g., stable flies, horn flies, ticks and mites repellent compounds (e.g., lauric acid), identified from coconut oil that is listed as a GRAS (Generally Recognized as Safe, http://www.fda.gov/Food/IngredientsPackagingLabeling/GRAS/) substance. Coconut oil is an edible oil extracted from the kernel or meat of mature coconuts harvested from the coconut palm (https://en.wikipedia.org/wiki/Coconut_oil). It contains a high level of low molecular weight saturated fatty acids (Gervajio, G. C., Fatty acids and derivatives from coconut oil, IN: Bailey's Industrial Oil and Fat Products, Sixth Edition, Six Volume Set, Fereidoon Shahidi, Ed., 2005, John Wiley & Sons, Inc.). […] Both have over 2-weeks longevity deterring stable fly feeding (>90% repellency). […] This compound is listed as one of CFR 21 products that is permitted for direct addition to food for human consumption by FDA (Code of Federal Regulations, Title 21). […]

[4] = test system: ticks; assay: tick repellency (species not stated); assay type: in vivo; conditions: at 1.25%
[5] = test system: stable flies; conditions: for knock-down: lowest dose, 2 mg; for knock-down times: 20 mg and 10 mg doses
[6] = test system: bed bugs; assay: bed bug petri-dish repellency assay; assay type: in vivo, Cimex letularius
Text: (§1) Bed bugs chose to rest on control tents (hexane-treated) when given a choice of coconut FFA-treated tent (FIG. 9C). This effect lasted on tents treated 14 d earlier.

[7] = test system: bed bugs; assay: bed bug choice among treated tents (harborages); assay type: in vivo, Cimex letularius; conditions: control (hexane) vs treated tent
Text: as §1

[8] = test system: Aedes aegypti; assay: minimum effective dosage for biting protection; assay type: in vivo; conditions: N = 3-5
[9] = test system: Aedes aegypti; assay: arm-in-cage assay, biting protection; assay type: in vivo; conditions: 1st hour, N = 3
[10] = test system: horn flies; assay: horn fly blood-feeding repellency; assay type: in vivo, Haematobia irritans
Method: Comparisons of coconut FFA, methyl laurate, and lauric acid against horn fly blood-feeding: We also tested coconut FFA and its major compositional compound, lauric acid, for their repellency against horn flies. […] F=41.5 P<0.0001). Dose response curves of repellency against horn flies from coconut FFA and lauric acid: […] F=4.08-4.38 P<0.05). […] A 50% repellency was shown when the dose was reduced to 2 mg. No significant differences in the least repellency concentrations were found among the two repellent candidates, with average 7 mg of both coconut FFA and lauric acid was needed.

`CCCCCCCC/C=C\CCCCCCCC(=O)OC` [methyl oleate] was tested, and the “repellency against stable flies” value ([1]; 20 mg dosage) was “did not showed significant repellency”.
`CCCCCCCC(=O)O` [C8 acid, Caprylic acid] was tested, and the “repellency of C8 to C18 acids” value ([2]; dose not stated) was over 80%.
In the case of `CCCCCCCCC(=O)O` [C9], the “repellency of C8 to C18 acids” value ([2]; dose not stated) is reported as “strongest repellency”.
With `CCCCCCCCCCCC(=O)OC` [methyl laurate] the “time to mortality after exposure” value ([3]; horn flies) was 15 to 20 min, the mortality ([3]; horn flies after exposure) was 100% and the repellency against ticks [4] was 100%. For the same molecule, the knock-down [5] was “no knock-down”, the “mean LD” value ([5]; stable flies) was 11 to 20 min and the “time to mortality after exposure” value ([5]; stable flies) was 15 to 20 min. For the same molecule, the “toxic effect” value ([5]; stable flies) was “least toxic compound”, the mortality ([5]; stable flies after exposure) was 100% and the “repellency against stable flies” value ([2]; 20 mg dosage, listed as C12 Me) was 100%. The “repellency of methyl esters” value ([2]; initial bioassays, dose not stated) was about 100%.
In the case of `CCCCCCCCCCC(=O)O` [C11], the “repellency of C8 to C18 acids” value ([2]; dose not stated) is reported as “strongest repellency”.
In the case of `CCN(CC)C(=O)c1cccc(C)c1` [DEET, N,N-diethyl-m-toluamide, reference compound], the repellency remaining ([6]; 7th day after application (FIG. 9B)) is reported as “below 40%”, the “choice of control tents over treated tents” value [7] is reported as “no longer significant at 7 d and 14 d” and the “Minimum effective dosage required for biting protection” value (“Minimum effective dosage required” below) [8] is reported as 0.047 ± 0.000 mg/cm^2. For the same molecule, the biting protection ([9]; 6.25%) was 58-88* %, the biting protection ([9]; 12.50%) was 77-97* % and the biting protection ([9]; 25% (0.42 mg/cm^2)) was “≈93* %”.
For `CCCCCCCC(=O)OC` [C8 Me, Methyl octanoate], the “repellency against stable flies” value ([1]; 2 mg dose) was “strongest repellency”, the “repellency against stable flies” value ([1]; 20 mg dosage) was 100% and the “knock-down times” value [5] was “significantly shorter knock-down times”. The knock-down [5] was “no knock-down”.
In the case of `CCCCCCCCCC(=O)OC` [C10 Me, Methyl decanoate], the “repellency against stable flies” value ([1]; 20 mg dosage) is reported as 100%, the “knock-down times” value [5] is reported as “significantly shorter knock-down times” and the mortality ([5]; in vivo) is reported as about 100%. The knock-down time ([5]; stable flies) was “less than 3 mins”, the “toxic effect” value ([5]; stable flies) was “most active toxicant” and the “time to mortality after exposure” value ([5]; stable flies, listed as 10 Me ester) was 10 to 15 min. The “time to mortality after exposure” value ([5]; stable flies, listed as C10 methyl ester) was under 10 min.
In the case of `CCCCCCCCCCCCC(=O)O` [C13], the “repellency of C8 to C18 acids” value ([2]; dose not stated) is reported as “strongest repellency”.
With `CCCCCCCCCCCC(=O)O` [lauric acid] the “repellency against stable flies” value ([1]; 2 mg dose) was “No repellency”, the “LR50 (95% C.I.), least repellency concentration” value ([1]; in vivo) was 3.69 (3.23-6.53) mg/24 cm^2 and the “LR90 (95%, C.I.), least repellency concentration” value ([1]; in vivo) was 13.61 (9.11-32.59) mg/24 cm^2. The “average amount needed to achieve 90% repellency” value ([1]; in vivo) was 13 mg, the “repellency against horn flies” value ([10]; 2 mg dose) was 50% and the “least repellency concentration, average amount needed” value ([10]; in vivo) was 7 mg. For the same molecule, the effectiveness duration ([6]; at 5%) was “up to 24 hours”, the repellency against bedbugs ([6]; at 5%) was 100% and the “Minimum effective dosage required” value [8] was 0.75 mg/cm^2. The “Minimum effective dosage required” value ([8]; listed as Lauric acid) was 0.750 ± 0.000 mg/cm^2, the biting protection ([9]; 6.25%) was 20 ± 0% and the biting protection ([9]; 12.50%) was 20 ± 0%. The biting protection ([9]; 25% (0.42 mg/cm^2)) was 73%, the biting protection ([9]; 25% (0.42 mg/cm^2), listed as Lauric acid) was 74 ± 6% and the biting protection ([9]; 50%) was 60 ± 11%. The “toxic effect” value ([5]; stable flies) was “no toxic effect” and the “repellency in longevity test” value ([2]; 2-week longevity test (FIG. 5)) was 94%.
